Test results taken from patent publication US7932384B2, “Reverse-turn mimetics and method relating thereto” (Choongwae Pharma Corporation, priority 2001, dated 2011).

What was measured:
[1] = test system: caspase 3; test: Caspase 3 activity in cultured tumor cells; type: cell-based; conditions: 2.5 μM or 5.0 μM
[2] = test system: caspase-3/7 in SW480 cells; test: Caspase-3/7 activity assay, SW480; type: cell-based; conditions: SW480, 25 μM, 24 hours, compared to CCD18Co cells
Description: (§1) SW480, HCT116, and CCD18Co cells were plated at 10^5 cells per well (96-well plates) for 24 hours prior to treatment. […] 24 hours post treatment, cells were lysed and caspase activity was measured using a caspase-3/7 activity kit (Apo-One Homogeneous caspase-3/7 assay, #G77905, Promega). Relative fluorescence units (RFU) were obtained by subtracting the unit values of the blank (control, without cells) from the experimental measured values.
(§2) Caspases are cysteine proteases that are generally activated in a given population of cells triggered by apoptotic stimuli.

[3] = test system: SW480 cells; test: Soft agar colony formation assay; type: cell-based; conditions: SW480, 0.25-5 μM
Description: The soft agar colony formation assay was conducted with SW480 cells by some modification of the procedure previously described (Moody et al., “A vasoactive intestinal peptide antagonist inhibits non-small cell lung cancer growth,” Proc. Natl. Acad. Sci. USA. 90:4345-49 (1993)).
Each well (35 mm) of a 6-well plate (Nalge Nunc International, Roskide, Denmark) was coated with 1 ml of 0.8% bottom agar in DMEM medium containing 10% fetal bovine serum. After it was solidified, 1 ml of DMEM medium containing 0.4% top agar, 10% fetal bovine serum, compound doubly concentrated, and 5,000 single viable cells was added to each well. The cultures were incubated at 37° C. in humidified 5% CO2 incubator. Colonies in soft agar were monitored daily and photographed after incubation for 8 days. Colonies>60 μm in diameter were counted.

[4] = test system: HLAC; test: Real time RT-PCR gene expression, HLAC; type: cell-based; conditions: 25 μM, 24 hours; <0.5 significant decrease, >1.5 significant increase
Description: (§3) Real time reverse transcription-PCR analysis was performed according to the protocol provided with the SYBR Green PCR Master Mix Kit (Perkin Elmer Biosystems, Shelton, ST). […] The primers used for the RT-PCR reactions were [NT] and [NT].

[5] = test system: Ubiquitin; test: Real time RT-PCR gene expression, Ubiquitin; type: cell-based; conditions: 25 μM, 24 hours; <0.5 significant decrease, >1.5 significant increase
Description: as §3

[6] = biological target: β-catenin/p300 interaction (Homo sapiens, UniProt Q09472); conditions: Emami et al., Cancer Cell, in press; cited from earlier work
[7] = test system: surviving protein; test: Western blot analysis of survivin protein; type: cell-based; conditions: 10 μM or 25 μM
[8] = test system: HCT116 cells; test: Flow cytometric analysis (FACS) of cell cycle, HCT116; type: cell-based; conditions: HCT116, 25 μM, 24 hours
Description: For FACS analysis, approx. 5×10^6 cells from Compound D-treated or vehicle-treated were fixed with 70% chilled ethanol and stored at −20° C. for at least 30 minutes. The cells were washed once with 1×PBS and incubated with propidium iodine (PI) solution (85 μg/ml propidium iodine, 0.1% Nonidet P-40, 10 mg/ml RNAse) for 30 minutes at room temperature. 10,000 stained cells for each sample were acquired using Beckman Coulter EPICS XL-MCL Flow Cytometry and the percentage of cells in different phase of the cell cycle was determined by Expo32 ADC software (Coulter Corporation, Miami, Fla., 33196).
It has been shown that inhibition of the expression of the cyclin D1 gene causes arrest at the G1/S-phase of the cell cycle (Shintani et al., “Infrequent alternations of RB pathway (Rb-p16INK4A-cyclin D1) in adenoid cystic carcinoma of salivary glands,” Anticancer Res. 20:2169-75 (2000)). […] The cells were subsequently stained with propidium iodide (PI) and analyzed for DNA content by FACS cytofluorometry.

[9] = test system: MIC-1; test: Real time RT-PCR gene expression, MIC-1; type: cell-based; conditions: 25 μM, 24 hours; <0.5 significant decrease, >1.5 significant increase
Description: as §3

[10] = test system: caspase-3/7 in HCT116 cells; test: Caspase-3/7 activity assay, HCT116; type: cell-based; conditions: HCT116, 25 μM, 24 hours, compared to CCD18Co cells
Description: as §1, §2

[11] = test system: surviving promoter; test: Survivin promoter luciferase reporter in wild type, CBP+/−, p300+/− 3T3 cells; type: cell-based; conditions: with or without Wnt1
Source text: A plasmid containing luciferase under the control of surviving promoter was constructed and transfected into wild type, CBP+/−, or p300+/−3T3 cells.

[12] = test system: surviving promoter; test: ChIP assay on SW480 cells (survivin promoter occupancy); type: cell-based; conditions: SW480, 25 μM, 18 hours

β-catenin/p300 interaction, sequence (Q09472 whole entry): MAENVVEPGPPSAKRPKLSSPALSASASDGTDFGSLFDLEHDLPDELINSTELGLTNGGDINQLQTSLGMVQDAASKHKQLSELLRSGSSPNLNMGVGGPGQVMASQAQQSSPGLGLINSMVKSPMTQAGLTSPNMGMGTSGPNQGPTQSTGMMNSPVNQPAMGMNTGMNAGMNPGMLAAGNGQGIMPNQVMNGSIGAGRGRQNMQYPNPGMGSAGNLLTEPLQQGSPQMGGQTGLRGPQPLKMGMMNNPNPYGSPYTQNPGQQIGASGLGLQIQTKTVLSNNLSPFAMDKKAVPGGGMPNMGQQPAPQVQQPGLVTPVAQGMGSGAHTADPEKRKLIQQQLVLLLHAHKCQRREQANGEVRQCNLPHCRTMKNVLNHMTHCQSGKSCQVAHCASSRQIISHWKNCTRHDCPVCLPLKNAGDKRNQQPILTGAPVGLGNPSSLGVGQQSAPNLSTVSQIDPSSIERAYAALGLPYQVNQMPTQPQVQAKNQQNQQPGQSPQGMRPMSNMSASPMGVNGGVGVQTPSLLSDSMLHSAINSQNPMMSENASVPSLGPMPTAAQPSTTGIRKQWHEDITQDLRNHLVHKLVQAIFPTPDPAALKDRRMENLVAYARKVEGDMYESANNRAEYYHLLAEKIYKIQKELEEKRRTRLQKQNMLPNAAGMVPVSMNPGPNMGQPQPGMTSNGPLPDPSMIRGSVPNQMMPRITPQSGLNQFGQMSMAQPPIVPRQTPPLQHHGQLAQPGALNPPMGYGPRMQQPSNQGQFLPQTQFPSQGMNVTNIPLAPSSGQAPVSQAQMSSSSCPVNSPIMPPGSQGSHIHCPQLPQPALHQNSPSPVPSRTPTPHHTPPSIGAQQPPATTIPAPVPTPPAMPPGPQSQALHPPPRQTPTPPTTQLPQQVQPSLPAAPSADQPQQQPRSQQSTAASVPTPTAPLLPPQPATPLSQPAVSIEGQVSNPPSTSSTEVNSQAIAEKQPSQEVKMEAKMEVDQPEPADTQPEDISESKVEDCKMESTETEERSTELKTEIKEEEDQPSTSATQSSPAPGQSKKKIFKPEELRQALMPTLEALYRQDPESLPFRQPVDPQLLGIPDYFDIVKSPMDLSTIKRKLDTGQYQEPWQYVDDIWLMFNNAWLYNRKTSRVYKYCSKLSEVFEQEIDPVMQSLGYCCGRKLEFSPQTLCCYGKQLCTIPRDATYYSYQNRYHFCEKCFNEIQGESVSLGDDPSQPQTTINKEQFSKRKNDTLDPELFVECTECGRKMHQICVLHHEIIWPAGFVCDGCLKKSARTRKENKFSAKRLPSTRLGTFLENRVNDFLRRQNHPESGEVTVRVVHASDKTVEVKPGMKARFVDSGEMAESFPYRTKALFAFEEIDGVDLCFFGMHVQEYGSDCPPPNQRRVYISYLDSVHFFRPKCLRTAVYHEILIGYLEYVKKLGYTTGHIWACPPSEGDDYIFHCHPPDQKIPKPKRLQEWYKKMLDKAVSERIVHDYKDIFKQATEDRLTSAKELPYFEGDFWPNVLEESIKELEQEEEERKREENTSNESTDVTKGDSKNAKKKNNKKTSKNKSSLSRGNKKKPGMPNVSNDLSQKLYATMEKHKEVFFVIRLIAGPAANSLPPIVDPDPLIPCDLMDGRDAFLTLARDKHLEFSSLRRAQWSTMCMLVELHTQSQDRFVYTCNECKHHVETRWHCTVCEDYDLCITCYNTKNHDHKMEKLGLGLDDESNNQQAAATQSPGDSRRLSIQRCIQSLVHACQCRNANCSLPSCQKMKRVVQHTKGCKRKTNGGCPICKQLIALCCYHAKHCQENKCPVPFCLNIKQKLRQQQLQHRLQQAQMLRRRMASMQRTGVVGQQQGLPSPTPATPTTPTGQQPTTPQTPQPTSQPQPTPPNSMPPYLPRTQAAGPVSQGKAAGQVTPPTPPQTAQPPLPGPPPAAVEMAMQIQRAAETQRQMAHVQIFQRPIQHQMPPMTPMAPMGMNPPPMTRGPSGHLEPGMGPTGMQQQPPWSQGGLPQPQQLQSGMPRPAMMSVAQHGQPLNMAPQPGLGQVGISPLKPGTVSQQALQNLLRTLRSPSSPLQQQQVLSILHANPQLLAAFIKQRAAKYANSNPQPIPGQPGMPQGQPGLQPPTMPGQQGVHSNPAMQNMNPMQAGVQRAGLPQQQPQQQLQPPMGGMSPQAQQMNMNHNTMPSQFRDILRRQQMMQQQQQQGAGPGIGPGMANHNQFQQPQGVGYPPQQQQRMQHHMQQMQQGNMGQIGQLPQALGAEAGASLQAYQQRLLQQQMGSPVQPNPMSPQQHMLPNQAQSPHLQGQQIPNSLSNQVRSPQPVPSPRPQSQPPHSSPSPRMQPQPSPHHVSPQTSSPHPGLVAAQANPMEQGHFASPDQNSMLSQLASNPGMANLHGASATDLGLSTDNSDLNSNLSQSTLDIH

Q: For `O=C1[C@H](Cc2ccc(O)cc2)N2C(=O)CCN(C(=O)NCc3ccccc3)[C@H]2CN1Cc1cccc2ccccc12` [Compound D], which “caspase 3 activity” value [1] is on record?
A: activated the caspase 3 activity

Q: What about the caspase-3/7 activity [2] of the same compound?
A: specifically and significantly activated the caspase-3/7 pathway

Q: And the “number of colonies formed in soft agar” value [3]?
A: dose dependent decrease in the number of colonies formed

Q: What about the “Ratio (Treated/DMSO Control) HLAC” value [4] of the same compound?
A: 1.01

Q: What about the “Ratio (Treated/DMSO Control) Ubiquitin” value [5] of the same compound?
A: 0.98

Q: What about the “blocking of β-catenin/p300 interaction” value [6] of the same compound?
A: not the β-catenin/p300 interaction

Q: What about the “amount of survivin protein (Western blot)” value [7] of the same compound?
A: reduced the amount of the surviving protein

Q: What about the “cell cycle distribution (FACS, PI)” value [8] of the same compound?
A: increased accumulation at G1/S-phase of the cell cycle

Q: What about the “Ratio (Treated/DMSO Control) MIC-1” value [9] of the same compound?
A: 7.0

Q: And the caspase-3/7 activity [10]?
A: specifically and significantly activated the caspase-3/7 pathway

Q: And the “survivin gene expression (promoter luciferase)” value [11]?
A: reduces expression of the surviving gene

Q: What about the “association of CBP, β-catenin, Tcf4 and acetylated histone with the survivin promoter (ChIP)” value [12] of the same compound?
A: decreases the association of all these proteins with the surviving promoter
